The numbers were not newly measured in US5278146A, “CRF analogs” (The Salk Institute for Biological Studies, priority 1992, dated 1994), which cites them from elsewhere.

Where no end group is shown, it is not given here.

For data set [1] the following is noted: injected peripherally, e.g. intravenously; cited from earlier work.
The subject of data set [2] is ACTH and β-endorphin-like activities (β-END-LI). To be noted: in vitro and in vivo; cited from earlier work.

Regarding “rCRF: rat CRF, homologous hentetracontapeptide of U.S. Pat. No. 4,489,163; same formula as human CRF (SEEPPISLDLTFHLLREVLEMARAEQLAQQAHSNRKLMEII; ends and bridges not checked; UniProt P01143 145-185, looked up)”, in data set [1], the “Lowering of blood pressure (background)” value is on record as “substantially lower blood pressure”. In data set [2], the “Stimulation of ACTH and β-endorphin secretion / β-END-LI (background)” value was “stimulate ACTH and β-endorphin-like activities”.
